Results from ChEMBL document CHEMBL1201862, “PubChem BioAssay data set” (2004).
Active and inactive are the calls of the source.

Key:
[1] = target: T1, Caspase-6 (Homo sapiens, UniProt P55212); experiment: human caspase-6 inhibitors, dose response, biochemical, VEID-R110 fluorescence, cherry-pick (AID 720632)
T1 sequence (P55212 whole entry): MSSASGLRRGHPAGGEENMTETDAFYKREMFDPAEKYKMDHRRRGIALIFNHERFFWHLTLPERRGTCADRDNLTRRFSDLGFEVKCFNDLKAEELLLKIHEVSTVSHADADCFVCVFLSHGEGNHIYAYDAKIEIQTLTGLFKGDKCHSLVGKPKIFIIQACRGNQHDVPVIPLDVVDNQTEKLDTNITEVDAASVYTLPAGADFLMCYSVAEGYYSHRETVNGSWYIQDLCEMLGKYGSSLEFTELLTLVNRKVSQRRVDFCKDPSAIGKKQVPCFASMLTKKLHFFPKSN

[2] = target: Mitogen-activated protein kinase 10 (Homo sapiens, UniProt P53779); experiment: Dose response biochemical screening assay for inhibitors of c-Jun N-Terminal Kinase 3 (JNK3). [Related pubchem assays: 746 ]
Chain of Mitogen-activated protein kinase 10 (P53779 whole entry, the tested form may be a part): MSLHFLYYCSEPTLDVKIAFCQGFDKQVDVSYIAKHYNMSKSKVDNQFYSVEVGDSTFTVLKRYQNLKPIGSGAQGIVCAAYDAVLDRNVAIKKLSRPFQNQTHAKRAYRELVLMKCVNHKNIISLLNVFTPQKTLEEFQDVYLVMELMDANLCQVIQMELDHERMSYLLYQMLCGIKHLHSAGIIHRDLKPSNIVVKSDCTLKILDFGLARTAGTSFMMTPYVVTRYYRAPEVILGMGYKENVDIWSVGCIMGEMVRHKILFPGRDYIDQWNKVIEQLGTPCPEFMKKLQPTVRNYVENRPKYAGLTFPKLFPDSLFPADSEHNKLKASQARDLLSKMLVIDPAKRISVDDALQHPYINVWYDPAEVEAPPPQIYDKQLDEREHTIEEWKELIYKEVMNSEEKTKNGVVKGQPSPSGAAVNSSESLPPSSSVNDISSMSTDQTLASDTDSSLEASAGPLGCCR

[3] = target: T2, Disintegrin and metalloproteinase domain-containing protein 17 (Homo sapiens, UniProt P78536); experiment: exosite inhibitors of ADAM17, dose response, biochemical (AID 743260)
T2 sequence (P78536 whole entry, the tested form may be a part): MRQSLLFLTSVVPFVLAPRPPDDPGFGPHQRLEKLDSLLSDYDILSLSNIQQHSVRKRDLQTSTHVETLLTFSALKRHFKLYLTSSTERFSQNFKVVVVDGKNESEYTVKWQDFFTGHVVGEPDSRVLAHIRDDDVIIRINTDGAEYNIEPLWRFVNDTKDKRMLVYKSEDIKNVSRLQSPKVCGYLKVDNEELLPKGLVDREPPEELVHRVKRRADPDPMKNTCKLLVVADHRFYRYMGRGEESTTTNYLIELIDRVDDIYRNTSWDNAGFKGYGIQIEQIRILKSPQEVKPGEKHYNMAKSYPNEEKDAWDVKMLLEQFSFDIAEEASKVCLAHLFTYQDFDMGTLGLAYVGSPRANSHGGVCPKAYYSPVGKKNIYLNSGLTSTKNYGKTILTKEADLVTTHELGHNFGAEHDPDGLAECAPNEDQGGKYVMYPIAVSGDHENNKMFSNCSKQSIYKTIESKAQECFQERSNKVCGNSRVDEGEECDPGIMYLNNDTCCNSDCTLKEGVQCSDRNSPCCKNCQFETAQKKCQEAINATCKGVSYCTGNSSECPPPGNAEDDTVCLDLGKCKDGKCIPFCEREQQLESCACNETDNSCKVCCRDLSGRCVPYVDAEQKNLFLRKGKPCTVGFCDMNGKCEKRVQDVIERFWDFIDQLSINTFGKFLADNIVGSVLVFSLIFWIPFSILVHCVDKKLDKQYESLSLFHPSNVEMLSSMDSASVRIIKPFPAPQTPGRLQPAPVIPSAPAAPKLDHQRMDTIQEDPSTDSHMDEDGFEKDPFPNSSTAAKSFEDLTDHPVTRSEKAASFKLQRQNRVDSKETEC

[4] = ADAM10 protease inhibitors, dose response, selectivity assay for ADAM17 exosite inhibitor project, biochemical, FRET peptide substrate, recombinant human ADAM10 (AID 743259);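 also: ADAM10 enzyme cleaving a FRET peptide substrate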
[5] = target: T2, Disintegrin and metalloproteinase domain-containing protein 17; experiment: ADAM17 protease inhibitors, dose response, counter-screen for ADAM10 exosite inhibitor project, biochemical, quenched FRET substrate (AID 743253)
[6] = target: NAD-dependent protein deacylase sirtuin-5, mitochondrial (Homo sapiens, UniProt Q9NXA8); experiment: SIRT5 desuccinylase inhibitors, dose response, biochemical, fluorescence imaging, cherry-pick, set 5 (AID 720591);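 also: desuccinylation of succinyl peptide AMC substrate read as fluorescence after trypsin release; potency of inhibitors that lower fluorescence and may act on trypsin instead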
Chain of NAD-dependent protein deacylase sirtuin-5, mitochondrial (Q9NXA8 whole entry): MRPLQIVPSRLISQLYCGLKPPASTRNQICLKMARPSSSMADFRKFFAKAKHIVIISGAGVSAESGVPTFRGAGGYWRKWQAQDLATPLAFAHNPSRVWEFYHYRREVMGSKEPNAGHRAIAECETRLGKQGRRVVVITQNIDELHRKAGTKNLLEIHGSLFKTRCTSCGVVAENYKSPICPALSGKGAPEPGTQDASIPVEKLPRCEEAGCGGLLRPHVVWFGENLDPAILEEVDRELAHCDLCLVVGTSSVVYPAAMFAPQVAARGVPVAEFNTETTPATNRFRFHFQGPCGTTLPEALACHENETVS

[7] = IGROV1 ovarian cancer cell cytotoxicity, dose response, PAX8 inhibitor project, plate reader, dry powder samples (AID 743043); assay type: functional, cell-based; conditions: IGROV-1
[8] = non-specific cell cytotoxicity, dose response, cytotoxicity control for PAX8 inhibitor project, plate reader, dry powder samples (AID 743021); assay type: functional, cell-based
[9] = target: Paired box protein Pax-8 (Homo sapiens, UniProt Q06710); experiment: inhibitors of PAX8-driven TPO luciferase reporter, dose response, RMG-I cells, cherry-pick (AID 687027); assay type: functional, cell-based;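 also: luciferase reporter driven by Pax8 target thyroperoxidase promoter measured by SteadyGlo luminescence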
Chain of Paired box protein Pax-8 (Q06710 whole entry): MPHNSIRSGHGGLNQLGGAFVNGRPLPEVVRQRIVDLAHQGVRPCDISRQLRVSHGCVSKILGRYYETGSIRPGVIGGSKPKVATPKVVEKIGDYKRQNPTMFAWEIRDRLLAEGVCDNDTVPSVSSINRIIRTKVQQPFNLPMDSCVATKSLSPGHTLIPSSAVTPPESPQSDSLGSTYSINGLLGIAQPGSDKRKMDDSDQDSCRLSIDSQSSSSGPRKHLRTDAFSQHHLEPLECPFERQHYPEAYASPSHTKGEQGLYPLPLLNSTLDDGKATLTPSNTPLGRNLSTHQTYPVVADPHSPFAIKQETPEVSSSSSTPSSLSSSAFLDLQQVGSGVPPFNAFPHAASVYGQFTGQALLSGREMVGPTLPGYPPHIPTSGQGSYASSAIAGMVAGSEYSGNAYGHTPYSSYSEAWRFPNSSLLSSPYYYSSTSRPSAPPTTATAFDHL

[10] = cytotoxicity in OVCAR8 ovarian cancer cells, dose response, PAX8 project, cell-based, plate reader, dry powder samples (AID 743197); assay type: functional; conditions: OVCAR-8
[11] = NIH:OVCAR-3 ovarian cancer cell cytotoxicity, dose response, PAX8 inhibitor project, plate reader, dry powder samples (AID 743044); assay type: functional, cell-based
[12] = target: E3 ubiquitin-protein ligase Mdm2 (Homo sapiens, UniProt Q00987); experiment: enhancers of MDM2-luciferase reporter signal, concentration-effect titration, project on inhibitors of MDM2 ubiquitin ligase, cellular assay, luminescent readout, 384-well plate format (AID 1394); assay type: functional;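 also: MDM2 E3 inhibitors raise luminescence so EC50 is for signal enhancement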
Chain of E3 ubiquitin-protein ligase Mdm2 (Q00987 whole entry): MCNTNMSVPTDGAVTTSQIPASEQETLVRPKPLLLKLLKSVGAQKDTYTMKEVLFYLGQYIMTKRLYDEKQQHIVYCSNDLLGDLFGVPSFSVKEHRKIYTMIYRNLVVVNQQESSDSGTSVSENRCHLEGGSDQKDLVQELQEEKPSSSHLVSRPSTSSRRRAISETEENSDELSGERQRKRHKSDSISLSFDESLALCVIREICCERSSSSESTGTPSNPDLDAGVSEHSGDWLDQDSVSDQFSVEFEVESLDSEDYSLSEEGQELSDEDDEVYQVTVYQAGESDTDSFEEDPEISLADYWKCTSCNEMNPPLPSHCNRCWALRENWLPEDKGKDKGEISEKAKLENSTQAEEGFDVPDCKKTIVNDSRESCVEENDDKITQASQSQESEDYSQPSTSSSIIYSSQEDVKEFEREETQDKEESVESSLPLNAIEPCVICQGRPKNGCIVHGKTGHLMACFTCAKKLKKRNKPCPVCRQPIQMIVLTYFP

[13] = test system: HEK293; experiment: inhibitors of LMP1-driven NF-kB reporter, dose response, cell-based, HEK293, luciferase, cherry-pick (AID 588343); assay type: functional; conditions: Homo sapiens

With `Cc1ccc(NC(=O)c2noc3c2CCC3)cc1C` the AC50 [1] was 5.83 µM (active).
For `COC(=O)c1ccccc1NC(=O)COC(=O)CSCC(=O)N1CCOCC1`, the IC50 [2] was > 93.1 µM (not active).
With `COc1ccccc1/C=C/C1C(C(=O)OCC(C)C)=C(C)N=C2SCCC(=O)N21` (stereo not drawn) the IC50 [3] was > 69.5 µM (inactive) and the IC50 [4] was > 69.5 µM (inactive).
For `FC(F)(F)c1cc(CCN2C(=S)NC[C@@H]2Cc2ccccc2)cc(C(F)(F)F)c1`, the IC50 [5] was > 69.5 µM (inactive).
In the case of `Cc1ccc(C)c(N2CCN(S(=O)(=O)c3ccc4c(c3)CC(=O)N4C)CC2)c1`, the AC50 [6] is reported as > 30 µM (inactive).
In the case of `O=C1NC(=O)C(Cc2ccc(Cl)cc2)(c2ccccc2)N1` (stereo not drawn), the IC50 [3] is reported as 3.67 µM (active) and the IC50 [4] is reported as 29.4 µM (inactive).
In the case of `O=C(Nc1ccc(F)cc1)N1C[C@@H]2N[C@H](C1)[C@@H]2c1ccc(-c2ccccc2F)cc1`, the AC50 [7] is reported as 42.5 µM (active), the AC50 [8] is reported as 55.6 µM (active) and the AC50 [9] is reported as 13.8 µM (active). The AC50 [10] was > 70 µM (inactive) and the AC50 [11] was 32 µM (active).
In the case of `Cc1ccc(OCc2nnc(SC/C=C/c3ccccc3)n2Cc2ccco2)cc1`, the IC50 [3] is reported as > 69.6 µM (inactive) and the IC50 [4] is reported as 16 µM (inactive).
With `CC(C)c1ccc(OCc2cccc(C(=O)N/N=C/c3cccnc3)c2)cc1` the EC50 [12] was 0.02 µM (active) and the AC50 [13] was 0.98 µM (active).
In the case of `O=C(C1Cc2ccccc2CN1S(=O)(=O)c1ccc(F)cc1)N1CCOCC1` (stereo not drawn), the AC50 [6] is reported as 23.6 µM (active).
